Patent US7199286B2, “Plant-derived novel pathogen and SAR-induction chemical induced promoters, and fragments thereof” (Syngenta Participations AG, priority 1999, dated 2007)

Tested on: NI16 promoter fragment 544 bp
Assay: GUS florescence assay of promoter::GUS plants after SA application, NI16 544 bp fragment
Format: in vivo, Arabidopsis
Details: 5 mM SA spray
Excerpt: A binary promoter::reporter plasmid (pNOV2374) for Arabidopsis transformation was constructed. The regulatory/promoter sequence was fused to the GUS reporter gene (Jefferson et al. (1987) EMBO J 6: 3901-3907) by recombination using […] Technology according to the manufacturer's protocol as described in the Instruction Manual (LifeTechnologies, Rockville, Md.). The construct was then transformed into Agrobacterium tumefaciens strains by electroporation. pNOV2374 is a binary vector with a VS1 origin of replication, a copy of the Agrobacterium virg gene in the backbone, and a Basta® resistance selectable marker cassette between the left and right border sequences of the T-DNA. The Basta® selectable marker cassette comprises the Agrobacterium tumefaciens manopine synthase promoter (AtMas) (Barker et al., Plant Mol. Biol. 2, 335-350 (1983)) operably linked to the gene encoding Basta® resistance (i.e., the “BAR” gene, phosphinothricin acetyl transferase) (White et al., Nucl Acids Res 18: 1062 (1990)) and the 35S terminator. The AtMas promoter, the BAR coding sequence, and the 35S terminator are located at nt 4211 to nt 4679, nt 4680 to nt 5228, and nt 5263 to nt 5488, respectively, of pNOV2374. The vector contains […] recombination components, which were introduced into the binary vector backbone by ligating a blunt-ended cassette containing attR sites, ccdB, and a cholramphenicol resistance marker using the […] Vector Conversion System (LifeTechnologies, Rockville, Md.). The […] cassette was located between nt 126 and 1818 of pNOV2374. The promoter cassettes were inserted through an LR recombination reaction whereby the DNA sequence of pNOV2374 between nt 126 and nt 1818 were removed and replaced with the promoter of interest flanked by att sequences. […] The GIG gene (SEQ ID NO:29) contains the ST-LS1 intron from Solanum tuberosum at nt 385 to nt 576 of GUS (obtained from Dr. Stanton […], Purdue University, and described in Narasimhulu, et al. (1996) Plant Cell 8: 873-886.). […] The treatment was applied as a fine mist to the leaves. Leaf tissue was harvested from plants for the β-glucuronidase (GUS) florescence assay prior to SA application (T0) and at various time intervals after application. For quantitative analysis of promoter activity following induction treatments or in various Arabidopsis tissues and organs, GUS expression is measured florometrically. Tissue samples were harvested and ground in ice cold GUS extraction buffer (50 mM Na2HPO4 pH 7.0, 5 mM DTT, 1 mM Na2EDTA, 0.1% TritonX100, 0.1% sarcosyl). Ground samples were spun in a microfuge at 10,000 rpm for 15 minutes at 4° C. Following centrifugation, the supernatant was removed for the GUS assay and for a protein concentration determination. To measure GUS activity, the plant extract was assayed in GUS assay buffer (50 mM Na2HPO4 pH 7.0, 5 mM DTT, 1 mM Na2EDTA, 0.1% TritonX100, 0.1% sarcosyl, 1 mM 4-Methylumbelliferyl-beta-D-glucuronic acid dihydrate (MUG)), pre-warmed to 37° C. Reactions were incubated, and 100 uL aliquots were removed at 10 minute intervals over 30 minutes to stop the reaction by adding the 100 uL aliquots to tubes containing 900 uL of 2% Na2CO3. The stopped reactions were then read on a Tecan Spectroflourometer at 365 nm excitation and 455 emission wavelengths. Protein concentrations were determined using the BCA assay following the manufacturer's protocol. GUS activity is expressed as pmol MU/mg protein/min.

O=C(O)c1ccccc1O [SA, salicylic acid]
GUS Activity Induced by SA (2 h): 52.2 pmol/mg protein/min
GUS activity Fold-change relative to T0 (uninduced) (2 h): 4.3 fold
GUS Activity Induced by SA (4 h): 72.5 pmol/mg protein/min
GUS activity Fold-change relative to T0 (uninduced) (4 h): 6.0 fold
GUS Activity Induced by SA (8 h): 194.9 pmol/mg protein/min
GUS activity Fold-change relative to T0 (uninduced) (8 h): 16.2 fold
GUS Activity Induced by SA (24 h): 205.4 pmol/mg protein/min
GUS activity Fold-change relative to T0 (uninduced) (24 h): 17.0 fold
